Assay results published in patent US20240139188A1, “Arylamide Compounds For Treatment And Prevention Of Fungal Infections” (priority 2022, published 2024).
In brackets after ≈: the same amount, converted by molar mass. Like-named read-outs stand apart in the source and are kept apart here. Numbered stars: 1 amine (or outer) side, 2 acyl side, 3 side chain; on linkers, the order of the positions; unused ones are H or OH. Bridge positions count the residues as written; N and C are the ends. Square brackets hold non-standard residues; d marks the D form. Peptide text beside a SMILES is read from it. * marks the point of attachment. hTyr(3S-OH,4S-OH,3'-OSO3H) = N[C@H](C(=O)O)[C@H](O)[C@@H](O)c1ccc(O)c(OS(=O)(=O)O)c1; Orn(4R-OH,5R-OH) = O=C([C@H](C[C@@H](O)[C@@H](O)N[*:3])N[*:1])[*:2]; Pro(3S-OH,4S-Me) = C[C@H]1CN[C@H](C(=O)O)[C@H]1O; X1 = CCCCCOc1ccc(-c2cc(-c3ccc(C(=O)*)cc3)no2)cc1; Gln(3R-OH) = NC(=O)C[C@@H](O)[C@H](N)C(=O)O; Hyp = O=C(O)[C@@H]1C[C@@H](O)CN1

How the values were obtained:
[1] = system: A549 human lung cancer cells; format: cell-based; settings: 48 h, 10 %
Description: Cytotoxicity assay: Cytotoxicity assays in A549 human lung cancer cells were performed using XTT assay as indicated in the manufacturers' instructions. Cells (2×10^5 cells/well) were seeded in 96-well tissue plates and incubated in Dulbecco's Modified Eagle Medium (DMEM) culture medium. After 24 hours of incubation, the cells were treated with BRI (40 and 80 μM/well), CAS (50, 100 and 200 μg/well) or in different CAS+BRI combinations. After 48 hours incubation, the cell viability was assessed by using the XTT kit (Roche Applied Science) according to the manufacturer's instructions. Formazan formation was quantified spectrophotometrically at 450 nm (reference wavelength 620 nm) using a microplate reader. The experiment was made in three replicates. Viability was calculated using the background-corrected absorbance as follows: Cell viability (%)=absorbance value of experiment well/absorbance value of control well×100.

A. fumigatus [2] = experiment: Alamar blue metabolic activity assay; format: cell-based, Aspergillus fumigatus; settings: for interaction with BRI in inhibition of metabolic activity (Alamar blue): increasing concentrations + BRI 20 μM, 48 hours
A. fumigatus [3] = experiment: Protein kinase inhibitor (PKI) library screen with or without BRI; settings: for growth, PKI (20 μM): PKI 20 μM alone; for growth, PKI (20 μM) + BRI (20 μM): PKI 20 μM together with BRI 20 μM
Description: A protein kinase inhibitors (PKI) library was also screened in combination with BRI. In total, 58 PKI were analyzed. Briefly, 100 μL of liquid MM containing 2.5×10^3 conidia/mL of the A. fumigatus wild-type strain plus 10% alamar blue was inoculated with increasing concentration of PKI (5-80 μM) in the presence (or not) of BRI (20μM) and incubated 48 hours at 37° C. without shaking. […] Plates were incubated for 48 hours at 37° C. without shaking. All experiments containing alamar blue were, after 48 hours incubation, read spectrophotometically by fluorescence and analyzed as previously described. Experiments were repeated at least three times.
To assess the mechanism of action of BRI, a collection of 58 protein kinase inhibitors (PKI, at a concentration of 20 μM; Table 4) was screened for A. fumigatus growth and corresponding metabolic activity alone or together with 20 μM BRI (Table 4).

Aspergillus fumigatus = experiment: In vitro susceptibility (MIC), macrobroth dilution; format: cell-based; settings: drug alone; for MIC50: lowest concentration causing 50% decrease in growth vs untreated control; for MIC100: lowest concentration without growth
Mucorales Mucor species = experiment: In vitro susceptibility (MIC), macrobroth dilution; format: cell-based; settings: Mucor sp. 13-127, drug alone; for MIC50: lowest concentration causing 50% decrease in growth vs untreated control; for MIC100: lowest concentration without growth
Candida albicans = experiment: In vitro susceptibility (MIC), macrobroth dilution; format: cell-based; settings: C. albicans 5, drug alone
[4] = system: A. fumigatus clinical isolates; experiment: Growth inhibition of clinical isolates by CAS, VOR, BRI and combinations; settings: strain CYP15-15-109, VOR
A. fumigatus biofilms = experiment: Biofilm assay (XTT); settings: Aspergillus fumigatus, read-out: inhibition of biofilm formation
Description: Biofilm assay: To test the susceptibility of pre-formed A. fumigatus biofilms to
VOR, CAS and to the combination of CAS+BRI and VOR+BRI, a suspension containing 10^6 conidia per mL of the wild-type strain (Δku80 pyrG^+) was prepared in liquid MM and 100 μL of it was inoculated in each well of a 96-well plate. After 24 hours of incubation at 37° C., 50 μL of fresh MM containing CAS, VOR or the combination of VOR and CAS with BRI was added to the biofilm to reach the final concentration as indicated and incubated for a further 12 hours at 37° C. Wells containing untreated conidia were used as a positive control. After, the metabolic activity of the cells was evaluated by adding 50 μL of an aqueous XTT solution (1 mg/mL of XTT and 125 μM of menadione) to each well. The plate was incubated for additional 1 hour at 37° C., centrifuged (2000 rpm, 5 minutes) and 100 μL of the supernatant was transferred to a flat-bottomed 96-well plate. The absorbance was measured at 450 nm on a plate reader (Synergy HTX Multi-Mode Reader- BioTek Instruments). The XTT assay's were performed in six replicates.

[5] = system: A. fumigatus conidia infecting A549 pulmonary cells; experiment: Killing assay in infected A549 cells; format: cell-based, Aspergillus fumigatus; settings: monotherapy
Description: Killing assay: The type II pneumocyte cell line A549 was cultured using DMEM (ThermoFischer Scientific, Paisley. […] After 24 hours of incubation in 5% CO2 the culture media was removed, and 2 ml of sterile water was added to the wells. A P1000 tip was then used to scrape away the cell monolayer and the cell suspension was collected. This suspension was then diluted 1:1000 and 100 μl was plated on Sabouraud Dextrose Agar Media before the plates were incubated a 37° C. overnight. The numbers of CFUs were determined after 24 hours of growth. A volume of 50 μl of the inoculum adjusted to 103/ml was also plated on SAB agar to correct CFU counts. The CFU percentage for each sample was calculated and the results were plotted using Graphpad Prism (GraphPad Software, Inc., La Jolla, CA, USA).

A. fumigatus [6] = experiment: MIC/MEC, CLSI M38-A2; format: cell-based, Aspergillus fumigatus; settings: Aspergillus fumigatus, read-out: MIC VOR
Cryptococcus neoformans = experiment: In vitro susceptibility (MIC), macrobroth dilution; format: cell-based; settings: C. neoformans CN9759, drug alone
[7] = lowest concentration causing 50% decrease in growth vs untreated control
[8] = lowest concentration without growth

## C[S+](C)[O-] [DMSO, dimethyl sulfoxide]
[1]
  reduction of cell viability: 80%

## COc1ccc2c(c[n+](C)c3c4cc5c(cc4ccc23)OCO5)c1OC [chelerenthrine]
A. fumigatus [2]
  interaction with BRI in inhibition of metabolic activity (Alamar blue): synergize

## Nc1ncnc2c1c(-c1cnc3[nH]ccc3c1)nn2C1CCCC1 [PP121]
A. fumigatus [3]
  growth, PKI (20 μM): ++ (++: growth ≥80% compared to no treatment)
  growth, PKI (20 μM) + BRI (20 μM): + (+: growth ≤60% compared to no treatment)
A. fumigatus [2]
  effect on BRI activity (metabolic activity, Alamar blue): potentiating the BRI activity

## Nc1nc(=O)[nH]cc1F [Flucytosine (FLCY)]
Aspergillus fumigatus; A. fumigatus 10AF
  MIC50: >64 µg/mL
  MIC100: >64 µg/mL

## CCCCCOc1ccc(-c2cc(-c3ccc(C(=O)N[C@H]4C[C@@H](O)[C@@H](O)NC(=O)[C@@H]5[C@@H](O)[C@@H](C)CN5C(=O)[C@H]([C@H](O)CC(N)=O)NC(=O)[C@H]([C@H](O)[C@@H](O)c5ccc(O)c(OS(=O)(=O)O)c5)NC(=O)[C@@H]5C[C@@H](O)CN5C(=O)[C@H]([C@@H](C)O)NC4=O)cc3)no2)cc1 [Micafungin (MICA)] (X1-[Orn(4R-OH,5R-OH)]T[Hyp][hTyr(3S-OH,4S-OH,3'-OSO3H)][Gln(3R-OH)][Pro(3S-OH,4S-Me)]; lactam 1-C)
Mucorales Mucor species
  MIC50: >16 µg/mL
  MIC100: >16 µg/mL
Aspergillus fumigatus; A. fumigatus 21-23
  MIC50: ≤0.06 µg/mL
  MIC100: >16 µg/mL
Candida albicans; [7]
  MIC50: ≤0.03 µg/mL
Candida albicans; [8]
  MIC100: 0.25 µg/mL (≈ 0.197 µM)

## C[C@@H](c1ncncc1F)[C@](O)(Cn1cncn1)c1ccc(F)cc1F [VOR, voriconazole]
[4]
  growth inhibition: totally inhibited
A. fumigatus biofilms
  inhibition at 2 µg/mL: ~10%
  inhibition at 4 µg/mL: ~50%
[5]
  A. fumigatus killing: ~60%
A. fumigatus [6]; A. fumigatus VOR^R clinical isolate named in c0 of the row
  MIC: 8 µg/mL (≈ 22.9 µM)
A. fumigatus [6]; A. fumigatus WT (CEA17)
  MIC: 2 µg/mL (≈ 5.73 µM)

## CC[C@@H]([C@H](C)O)n1ncn(-c2ccc(N3CCN(c4ccc(OC[C@@H]5CO[C@@](Cn6cncn6)(c6ccc(F)cc6F)C5)cc4)CC3)cc2)c1=O [Posaconazole (POSA)]
Mucorales Mucor species
  MIC50: 1 µg/mL (≈ 1.43 µM)
  MIC100: >16 µg/mL

## calphostin C
A. fumigatus [2]
  interaction with BRI in inhibition of metabolic activity (Alamar blue): synergize

## C[C@@H]1[C@H](O)[C@@H](C)/C=C/C=C/C=C/C=C/C=C/C=C/C=C/[C@H](O[C@@H]2O[C@H](C)[C@@H](O)[C@H](N)[C@@H]2O)C[C@@H]2O[C@](O)(C[C@@H](O)C[C@@H](O)[C@H](O)CC[C@@H](O)C[C@@H](O)CC(=O)O[C@H]1C)C[C@H](O)[C@H]2C(=O)O [Amphotericin B (AMPB)]
Mucorales Mucor species
  MIC50: 0.25 µg/mL (≈ 0.271 µM)
  MIC100: 0.5 µg/mL (≈ 0.541 µM)

## CCn1c(=O)c(-c2ccc(Cl)cc2Cl)cc2cnc(Nc3ccc(N4CCNCC4)c(F)c3)nc21 [FRAX486]
A. fumigatus [3]
  growth, PKI (20 μM): ++ (++: growth ≥80% compared to no treatment)
  growth, PKI (20 μM) + BRI (20 μM): + (+: growth ≤60% compared to no treatment)
A. fumigatus [2]
  effect on BRI activity (metabolic activity, Alamar blue): potentiating the BRI activity

## OC(Cn1cncn1)(Cn1cncn1)c1ccc(F)cc1F [Fluconazole (FLU)]
Cryptococcus neoformans; [7]
  MIC50: 1 µg/mL (≈ 3.27 µM)
Cryptococcus neoformans; [8]
  MIC100: 1 µg/mL (≈ 3.27 µM)
